Source: ChEMBL document CHEMBL1201862, “PubChem BioAssay data set” (2004)
The source made the active and inactive calls.

Key:
[1] = target: Nucleotide-binding oligomerization domain-containing protein 2 (Homo sapiens, UniProt Q9HC29); assay: PubChem AID 2334; format: functional
[2] = system: HEK293; assay: cells; conditions: Homo sapiens;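 further: cells exposed to compound for 14 hours overnight before viability readout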
[3] = target: Tumor necrosis factor (Homo sapiens, UniProt P01375); assay: analog potency on TNFa NF-kB signaling – cell-based, revised, SAR follow-up (AID 2337); format: functional
[4] = target: Nucleotide-binding oligomerization domain-containing protein 1 (Homo sapiens, UniProt Q9Y239); assay: blockers of NOD1 pathway activity – revised, SAR follow-up (AID 2333); format: functional
[5] = target: Estrogen receptor beta (Homo sapiens, UniProt Q92731);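 further: recombinant ER-beta bound to coactivator SRC1 peptide in presence of estradiol agonist; inhibitors block coactivator peptide binding and lower the FRET signal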
[6] = target: T1, Voltage-dependent T-type calcium channel subunit alpha-1H (Homo sapiens, UniProt O95180); assay: Inhibitors of T-Type Calcium Channels. [Related pubchem assays (depositor defined):AID449739, AID463087, AID489005, AID493041, AID504579, AID504584, AID504619, AID504628]; format: functional
[7] = target: T1, Voltage-dependent T-type calcium channel subunit alpha-1H; format: functional
[8] = target: T2, Zinc finger protein mex-5 (Caenorhabditis elegans, UniProt Q9XUB2); assay: potency of MEX-5 RNA-binding blockers – biochemical, C. elegans, fluorescence polarization, dose response (AID 1960)
T2 sequence (Q9XUB2 whole entry): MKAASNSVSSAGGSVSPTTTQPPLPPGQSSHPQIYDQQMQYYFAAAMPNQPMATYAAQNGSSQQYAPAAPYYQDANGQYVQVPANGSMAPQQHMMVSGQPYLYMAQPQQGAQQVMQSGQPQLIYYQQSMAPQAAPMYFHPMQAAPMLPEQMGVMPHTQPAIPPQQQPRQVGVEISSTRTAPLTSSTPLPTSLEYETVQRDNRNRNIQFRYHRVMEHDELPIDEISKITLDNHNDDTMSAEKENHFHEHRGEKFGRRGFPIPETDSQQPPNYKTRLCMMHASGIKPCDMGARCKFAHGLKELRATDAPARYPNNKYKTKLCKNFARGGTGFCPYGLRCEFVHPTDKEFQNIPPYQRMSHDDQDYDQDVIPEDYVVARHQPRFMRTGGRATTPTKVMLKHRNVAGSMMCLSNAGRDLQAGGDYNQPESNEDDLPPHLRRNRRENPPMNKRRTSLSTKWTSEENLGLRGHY

[9] = target: Procathepsin L (Homo sapiens, UniProt P07711)
[10] = target: Aspartyl aminopeptidase (Plasmodium falciparum 3D7, UniProt Q8I2J3)
[11] = target: Large T antigen (Simian virus 40, UniProt P03070); format: functional, Betapolyomavirus macacae;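 further: Confirmatory-stage PubChem screen for compounds that inhibit SV40 T antigen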
[12] = target: T3, RNA-binding protein pos-1 (Caenorhabditis elegans, UniProt G5EF15); assay: disruptors of C. elegans POS-1 RNA interaction – biochemical, fluorescence polarization, dose response (AID 1964);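 further: purified POS-1 fused to maltose binding protein made in E. coli; potency of compounds blocking POS-1 binding to fluorescent RNA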
T3 sequence (G5EF15 whole entry): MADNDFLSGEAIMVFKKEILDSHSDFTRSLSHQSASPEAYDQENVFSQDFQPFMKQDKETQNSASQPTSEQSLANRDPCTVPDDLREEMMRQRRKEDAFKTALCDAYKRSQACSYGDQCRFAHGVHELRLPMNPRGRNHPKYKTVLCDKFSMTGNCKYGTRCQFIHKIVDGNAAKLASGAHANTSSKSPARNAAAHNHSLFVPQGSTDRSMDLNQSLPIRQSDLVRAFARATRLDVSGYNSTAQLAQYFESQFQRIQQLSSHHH

[13] = target: DNA dC->dU-editing enzyme APOBEC-3G (Homo sapiens, UniProt Q9HC16); format: functional;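 further: Dose-response counterscreen measuring inhibition of APOBEC3G DNA deaminase activity, run while confirming APOBEC3A inhibitors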
[14] = Counterscreen for IDE inhibitors: Luminescence-based cell-based high throughput dose response assay to identify compounds that are cytotoxic to HEK cells. [Related pubchem assays: 434962 (Primary screen (IDE inhibitors in singlicate)), 449730 (Counterscreen (Cytotoxicity in triplicate)), 435028 (Confirmation (IDE inhibitors in triplicate)) …; format: functional; conditions: HEK293
[15] = target: T4, Insulin-degrading enzyme (Homo sapiens, UniProt P14735); assay: Dose Response: Fluorescence polarization-based cell-based high throughput dose response assay for inhibitors of insulin-degrading enzyme (IDE). [Related pubchem assays: 434962 (Primary screen (IDE inhibitors in singlicate)), 449730 (Counterscreen (Cytotoxicity in triplicate)), 435028 (Confirmation (IDE inhibitors in triplicate)), 434984 (Summary …; format: functional
T4 sequence (P14735 whole entry): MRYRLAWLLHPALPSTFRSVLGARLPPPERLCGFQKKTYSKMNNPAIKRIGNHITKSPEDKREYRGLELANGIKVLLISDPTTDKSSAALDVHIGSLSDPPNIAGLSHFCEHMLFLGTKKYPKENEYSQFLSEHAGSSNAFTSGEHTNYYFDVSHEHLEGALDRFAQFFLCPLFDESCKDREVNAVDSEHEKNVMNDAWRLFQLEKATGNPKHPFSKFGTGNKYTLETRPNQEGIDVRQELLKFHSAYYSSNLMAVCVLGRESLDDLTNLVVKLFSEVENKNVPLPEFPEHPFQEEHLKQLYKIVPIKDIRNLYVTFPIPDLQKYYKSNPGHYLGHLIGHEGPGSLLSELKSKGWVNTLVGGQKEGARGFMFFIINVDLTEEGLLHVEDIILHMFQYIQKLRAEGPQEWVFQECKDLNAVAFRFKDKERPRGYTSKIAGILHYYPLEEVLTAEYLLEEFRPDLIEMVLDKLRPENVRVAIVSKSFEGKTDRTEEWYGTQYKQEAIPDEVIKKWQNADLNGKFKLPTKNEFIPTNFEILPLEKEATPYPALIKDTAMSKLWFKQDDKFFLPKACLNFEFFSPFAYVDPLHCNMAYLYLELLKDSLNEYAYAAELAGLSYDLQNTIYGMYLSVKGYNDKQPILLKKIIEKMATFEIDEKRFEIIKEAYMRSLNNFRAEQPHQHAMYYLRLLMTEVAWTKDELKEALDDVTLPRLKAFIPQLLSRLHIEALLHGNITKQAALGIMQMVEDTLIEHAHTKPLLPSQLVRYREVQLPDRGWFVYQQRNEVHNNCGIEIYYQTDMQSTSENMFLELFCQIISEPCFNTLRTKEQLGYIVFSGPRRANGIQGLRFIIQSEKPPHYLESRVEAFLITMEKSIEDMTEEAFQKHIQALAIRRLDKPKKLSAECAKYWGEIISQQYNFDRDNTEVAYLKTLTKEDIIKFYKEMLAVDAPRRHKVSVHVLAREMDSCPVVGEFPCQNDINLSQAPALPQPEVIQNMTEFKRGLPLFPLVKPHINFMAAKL

[16] = target: DNA dC->dU-editing enzyme APOBEC-3A (Homo sapiens, UniProt P31941); assay: Dose Response confirmation of small molecule APOBEC3A DNA Deaminase Inhibitors via a fluorescence-based single-stranded DNA deaminase assay. [Related pubchem assays (depositor defined):AID493011, AID493024]; format: functional
[17] = target: T5, Estrogen receptor (Homo sapiens, UniProt P03372); assay: ERα coactivator recruitment enhancers – biochemical, TR-FRET, ERα LBD, dose response (AID 737)
T5 sequence (P03372 whole entry): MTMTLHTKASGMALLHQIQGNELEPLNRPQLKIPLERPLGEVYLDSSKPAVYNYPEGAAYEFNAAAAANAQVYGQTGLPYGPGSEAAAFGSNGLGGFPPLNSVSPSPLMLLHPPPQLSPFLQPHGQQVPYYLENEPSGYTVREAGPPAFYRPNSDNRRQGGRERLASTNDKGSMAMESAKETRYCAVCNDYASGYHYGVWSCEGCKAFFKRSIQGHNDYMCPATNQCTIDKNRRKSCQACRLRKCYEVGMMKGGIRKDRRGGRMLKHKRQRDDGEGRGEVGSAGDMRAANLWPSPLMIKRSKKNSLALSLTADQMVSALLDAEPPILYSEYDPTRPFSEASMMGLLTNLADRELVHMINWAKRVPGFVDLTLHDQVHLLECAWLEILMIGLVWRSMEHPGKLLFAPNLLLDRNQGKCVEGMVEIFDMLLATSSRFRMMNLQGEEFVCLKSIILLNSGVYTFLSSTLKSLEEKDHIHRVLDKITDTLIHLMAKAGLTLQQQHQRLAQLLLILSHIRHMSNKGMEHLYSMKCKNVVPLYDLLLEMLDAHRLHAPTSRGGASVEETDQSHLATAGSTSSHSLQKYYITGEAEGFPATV

[18] = target: T6, Eukaryotic translation initiation factor 2-alpha kinase 3 (Homo sapiens, UniProt Q9NZJ5); assay: Counterscreen assay for PERK inhibitors: Dose response cell-based high throughput screening assay to measure inhibition of PERK at 6 hours. [Related pubchem assays: 1522, 1416 ]; format: functional
[19] = target: T6, Eukaryotic translation initiation factor 2-alpha kinase 3; assay: Dose response cell-based high-throughput screening assay to measure PERK inhibition. [Related pubchem assays: 1416 ]; format: functional

T1 sequence (O95180 whole entry): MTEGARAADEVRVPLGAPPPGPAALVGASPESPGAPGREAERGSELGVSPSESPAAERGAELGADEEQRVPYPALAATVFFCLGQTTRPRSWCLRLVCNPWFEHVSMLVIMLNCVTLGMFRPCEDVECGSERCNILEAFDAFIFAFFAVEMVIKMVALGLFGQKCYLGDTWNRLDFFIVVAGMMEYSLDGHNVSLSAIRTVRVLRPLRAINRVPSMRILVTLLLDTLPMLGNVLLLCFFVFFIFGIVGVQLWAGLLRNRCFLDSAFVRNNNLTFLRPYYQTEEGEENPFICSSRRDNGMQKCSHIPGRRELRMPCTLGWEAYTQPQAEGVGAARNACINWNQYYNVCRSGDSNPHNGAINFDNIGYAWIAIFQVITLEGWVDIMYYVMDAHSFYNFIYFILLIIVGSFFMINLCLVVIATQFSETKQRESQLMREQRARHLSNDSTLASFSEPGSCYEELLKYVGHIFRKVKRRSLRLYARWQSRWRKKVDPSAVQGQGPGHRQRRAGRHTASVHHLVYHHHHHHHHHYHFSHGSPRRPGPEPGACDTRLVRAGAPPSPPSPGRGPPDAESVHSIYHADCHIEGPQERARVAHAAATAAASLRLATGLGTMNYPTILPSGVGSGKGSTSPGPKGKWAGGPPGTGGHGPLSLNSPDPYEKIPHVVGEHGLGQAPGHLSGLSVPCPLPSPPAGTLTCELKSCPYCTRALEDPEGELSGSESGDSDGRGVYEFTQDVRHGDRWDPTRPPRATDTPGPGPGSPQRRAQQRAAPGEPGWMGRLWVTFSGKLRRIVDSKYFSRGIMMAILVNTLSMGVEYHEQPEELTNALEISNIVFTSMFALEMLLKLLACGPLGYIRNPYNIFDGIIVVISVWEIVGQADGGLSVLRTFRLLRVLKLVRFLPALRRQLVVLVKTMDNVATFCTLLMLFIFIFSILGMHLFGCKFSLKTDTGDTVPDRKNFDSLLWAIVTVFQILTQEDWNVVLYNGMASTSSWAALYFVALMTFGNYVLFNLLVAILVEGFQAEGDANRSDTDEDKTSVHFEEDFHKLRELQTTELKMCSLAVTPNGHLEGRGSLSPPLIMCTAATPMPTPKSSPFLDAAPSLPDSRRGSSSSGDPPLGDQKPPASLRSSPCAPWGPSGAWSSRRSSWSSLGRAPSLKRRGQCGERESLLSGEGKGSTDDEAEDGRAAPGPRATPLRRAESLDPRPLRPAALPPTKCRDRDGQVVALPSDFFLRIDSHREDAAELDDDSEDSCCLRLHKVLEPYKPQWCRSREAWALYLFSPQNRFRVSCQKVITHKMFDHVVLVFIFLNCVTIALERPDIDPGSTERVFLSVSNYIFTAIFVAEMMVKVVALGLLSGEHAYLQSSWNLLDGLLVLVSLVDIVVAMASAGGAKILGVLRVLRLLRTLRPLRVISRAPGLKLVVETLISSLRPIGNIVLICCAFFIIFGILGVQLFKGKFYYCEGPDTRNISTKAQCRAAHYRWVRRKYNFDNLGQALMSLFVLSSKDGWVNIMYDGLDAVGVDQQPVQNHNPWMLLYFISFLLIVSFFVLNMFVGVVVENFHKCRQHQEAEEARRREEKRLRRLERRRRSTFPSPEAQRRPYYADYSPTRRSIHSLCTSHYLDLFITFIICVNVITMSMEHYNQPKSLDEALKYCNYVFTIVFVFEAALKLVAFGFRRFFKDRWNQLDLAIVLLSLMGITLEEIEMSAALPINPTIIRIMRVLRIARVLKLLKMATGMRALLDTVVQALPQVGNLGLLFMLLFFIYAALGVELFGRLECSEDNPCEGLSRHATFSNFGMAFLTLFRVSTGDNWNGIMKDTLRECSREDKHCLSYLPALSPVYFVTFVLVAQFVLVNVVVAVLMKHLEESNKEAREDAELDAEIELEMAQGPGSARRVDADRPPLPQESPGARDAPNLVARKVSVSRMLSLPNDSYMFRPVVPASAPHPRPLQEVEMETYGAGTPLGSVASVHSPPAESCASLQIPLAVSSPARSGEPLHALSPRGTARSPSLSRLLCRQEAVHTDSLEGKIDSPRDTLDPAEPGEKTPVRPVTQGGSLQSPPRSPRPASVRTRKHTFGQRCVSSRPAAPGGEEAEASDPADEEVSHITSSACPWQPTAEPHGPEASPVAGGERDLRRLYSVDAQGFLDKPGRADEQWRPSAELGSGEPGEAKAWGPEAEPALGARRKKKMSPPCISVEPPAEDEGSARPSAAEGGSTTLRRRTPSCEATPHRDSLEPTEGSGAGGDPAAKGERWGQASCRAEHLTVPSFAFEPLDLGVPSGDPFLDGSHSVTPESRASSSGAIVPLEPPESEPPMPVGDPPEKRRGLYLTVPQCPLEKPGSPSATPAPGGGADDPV
T6 sequence (Q9NZJ5 whole entry): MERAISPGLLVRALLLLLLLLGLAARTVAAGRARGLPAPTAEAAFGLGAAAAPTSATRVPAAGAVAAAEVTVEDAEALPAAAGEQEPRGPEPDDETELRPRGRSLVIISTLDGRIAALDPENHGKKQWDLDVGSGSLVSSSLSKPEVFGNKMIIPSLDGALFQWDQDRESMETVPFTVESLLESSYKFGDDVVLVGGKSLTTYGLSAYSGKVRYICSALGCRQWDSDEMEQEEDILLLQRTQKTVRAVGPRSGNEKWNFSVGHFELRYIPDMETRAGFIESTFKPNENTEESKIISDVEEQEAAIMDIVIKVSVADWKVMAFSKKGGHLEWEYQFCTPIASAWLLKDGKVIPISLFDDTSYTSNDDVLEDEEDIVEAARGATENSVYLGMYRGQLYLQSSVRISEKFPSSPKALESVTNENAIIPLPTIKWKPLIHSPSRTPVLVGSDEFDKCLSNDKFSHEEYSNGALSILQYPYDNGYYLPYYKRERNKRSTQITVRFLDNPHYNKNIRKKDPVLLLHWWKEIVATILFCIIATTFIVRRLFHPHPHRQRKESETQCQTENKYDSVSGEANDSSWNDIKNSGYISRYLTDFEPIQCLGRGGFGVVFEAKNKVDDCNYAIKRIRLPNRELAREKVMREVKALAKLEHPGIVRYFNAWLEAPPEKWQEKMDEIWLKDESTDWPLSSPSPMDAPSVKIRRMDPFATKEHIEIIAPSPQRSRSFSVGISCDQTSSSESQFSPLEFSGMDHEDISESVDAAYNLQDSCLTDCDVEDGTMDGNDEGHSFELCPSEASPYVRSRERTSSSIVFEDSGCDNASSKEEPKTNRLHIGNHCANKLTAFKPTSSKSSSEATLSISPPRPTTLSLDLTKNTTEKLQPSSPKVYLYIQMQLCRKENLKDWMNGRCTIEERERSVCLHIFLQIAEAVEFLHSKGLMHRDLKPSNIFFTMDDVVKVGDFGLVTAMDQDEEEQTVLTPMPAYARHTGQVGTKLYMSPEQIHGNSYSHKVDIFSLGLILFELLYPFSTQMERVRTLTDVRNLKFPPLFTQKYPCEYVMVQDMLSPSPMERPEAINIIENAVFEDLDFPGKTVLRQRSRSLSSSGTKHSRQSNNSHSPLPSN
Chain of DNA dC->dU-editing enzyme APOBEC-3A (P31941 whole entry, the tested form may be a part): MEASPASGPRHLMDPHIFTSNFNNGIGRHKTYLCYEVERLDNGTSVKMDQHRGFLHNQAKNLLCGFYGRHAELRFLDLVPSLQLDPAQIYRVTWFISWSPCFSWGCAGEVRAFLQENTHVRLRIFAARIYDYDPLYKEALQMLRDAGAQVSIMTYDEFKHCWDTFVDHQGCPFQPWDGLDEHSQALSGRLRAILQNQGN
Chain of Nucleotide-binding oligomerization domain-containing protein 2 (Q9HC29 whole entry, the tested form may be a part): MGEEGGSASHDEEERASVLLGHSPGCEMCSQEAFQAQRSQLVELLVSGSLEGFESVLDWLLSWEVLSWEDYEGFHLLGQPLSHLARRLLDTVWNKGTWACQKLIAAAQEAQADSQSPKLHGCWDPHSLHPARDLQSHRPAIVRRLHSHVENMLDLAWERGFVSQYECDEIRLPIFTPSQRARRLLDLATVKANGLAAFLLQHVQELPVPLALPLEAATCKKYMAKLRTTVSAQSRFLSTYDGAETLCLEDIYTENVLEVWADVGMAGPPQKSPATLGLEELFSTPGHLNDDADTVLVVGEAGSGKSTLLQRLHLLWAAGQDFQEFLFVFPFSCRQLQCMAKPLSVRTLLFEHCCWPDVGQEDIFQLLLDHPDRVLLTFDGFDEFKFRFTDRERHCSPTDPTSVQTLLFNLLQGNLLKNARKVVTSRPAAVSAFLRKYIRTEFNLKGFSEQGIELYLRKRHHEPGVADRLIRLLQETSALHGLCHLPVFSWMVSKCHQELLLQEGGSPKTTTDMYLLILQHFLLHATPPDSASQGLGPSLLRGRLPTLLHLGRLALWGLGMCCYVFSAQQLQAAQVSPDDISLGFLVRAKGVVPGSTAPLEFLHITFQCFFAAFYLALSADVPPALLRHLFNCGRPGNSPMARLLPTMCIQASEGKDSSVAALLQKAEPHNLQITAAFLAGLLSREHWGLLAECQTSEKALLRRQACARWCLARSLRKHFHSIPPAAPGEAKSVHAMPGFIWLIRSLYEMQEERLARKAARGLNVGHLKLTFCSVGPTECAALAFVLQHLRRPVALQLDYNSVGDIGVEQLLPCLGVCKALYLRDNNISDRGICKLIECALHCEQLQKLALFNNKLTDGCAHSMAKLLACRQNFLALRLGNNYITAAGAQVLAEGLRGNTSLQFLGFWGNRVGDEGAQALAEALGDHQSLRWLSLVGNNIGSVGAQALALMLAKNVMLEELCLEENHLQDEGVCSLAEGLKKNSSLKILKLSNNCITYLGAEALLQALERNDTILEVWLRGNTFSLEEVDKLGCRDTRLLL
Chain of Procathepsin L (P07711 whole entry): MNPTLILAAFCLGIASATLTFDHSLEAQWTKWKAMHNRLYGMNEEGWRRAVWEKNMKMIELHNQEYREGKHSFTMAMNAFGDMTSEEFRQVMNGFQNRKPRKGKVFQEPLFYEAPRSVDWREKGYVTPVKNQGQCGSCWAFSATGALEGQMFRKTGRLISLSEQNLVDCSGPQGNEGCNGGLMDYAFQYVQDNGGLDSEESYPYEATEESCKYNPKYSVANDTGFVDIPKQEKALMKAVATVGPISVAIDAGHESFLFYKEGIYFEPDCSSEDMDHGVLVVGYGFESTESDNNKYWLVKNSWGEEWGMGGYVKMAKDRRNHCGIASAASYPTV

CSC(S)=NN=Cc1ccc(Br)cc1
IC50 [1]: > 20 µM (inactive) | IC50 [2]: > 20 µM (inactive) | IC50 [3]: > 20 µM (inactive) | IC50 [4]: > 20 µM (inactive)

COc1ccc(-c2noc(CCC(=O)N3CCN(c4cccc(C(F)(F)F)c4)CC3)n2)cc1
IC50 [5]: > 50 µM (not active) | EC50 [6]: 4.32 µM (active) | EC50 [7]: 1.62 µM (active)

CN1CCc2cccc3c2[C@H]1Cc1ccc(O)c(O)c1-3 [APOMORPHINE]
EC50 [8]: 3.29 µM (active) | IC50 [9]: > 59.6 µM (not active) | IC50 [10]: 3.67 µM (active) | IC50 [11]: 20.2 µM (active) | EC50 [12]: > 300 µM (inconclusive)

CCN(CC)C(=O)c1ccc(/C=C/c2c[nH]c3ccccc23)[n+](C)c1
IC50 [13]: 2.1 µM (active) | IC50 [14]: > 55.7 µM (not active) | IC50 [15]: 16.1 µM (not active) | IC50 [16]: 1.96 µM (active)

Cc1nn(-c2ccc(Cl)cc2)c2sc(C(=O)N3CCN(c4ccccn4)CC3)cc12
EC50 [17]: 12.8 µM (active)

C[C@]12CS(=O)(=O)C[C@H]1SC(=S)N2c1ccccc1
EC50 [18]: > 55.7 µM (not active) | EC50 [19]: > 55.7 µM (not active)
